Reference: US5372944A, “Method for conversion of halogenated hydrocarbons to halohydrins” (The Dow Chemical Company, priority 1993, dated 1994)

Experiments:
[1] = test system: dehalogenase in cell free extracts of Rhodococcus Rhodochrous, TDTM-003; assay: Primary screen of dehalogenase activity in cell free extracts of TDTM-003; format: biochemical
Protocol: Following overnight growth, 50 μl of 1-chlorobutane was added to induce the dehalogenase. After 24 hours induction, cells were harvested by centrifugation, resuspended in cold 10mM Tris sulfate/1 mM disodium EDTA, pH=7.5, and disrupted by sonication. Cell debris was removed by centrifugation at 10,000 rpm for 30 minutes, cell free extracts dialyzed overnight against the same buffer, and assayed without dilution for dehalogenase activity.
Free chloride or bromide was assayed qualitatively using a chloride electrode (Orion), or quantitatively using the colorimetric method (430 nm) described by J. G. Bergmann, et al., Anal. Chem., 29:241-243 (1957).
(§1) Hydrolytic dehalogenase enzyme activity was evaluated by adding an appropriate amount of cell free extract or enzyme preparation to 5.0 mL of 100 mM glycine buffer, pH=9.0 in a 7 mL glass vial. The halogenated substrate (5.0 μl) and a small stir bar were added, and the vial capped. Reaction was initiated by transfer to a 30° C. water bath equipped with a magnetic stirrer. Periodically 1.0 mL samples were removed and assayed for free halide. Rates were determined after correcting for non-enzymatic hydrolysis with an appropriate blank. A standard curve was prepared using sodium chloride.
Preliminary studies were performed on cell free extracts of TDTM-003 to evaluate the enzyme substrate selectivity, and the results of this study are shown in Table 2.

[2] = molecular target: partially purified TDTM-003 dehalogenase (Rhodococcus sp. TDTM0003, UniProt P59336); assay: Substrate profile of partially purified TDTM-003 dehalogenase; format: biochemical, Rhodococcus species TDTM-003; details: corrected for non-enzymatic hydrolysis
partially purified TDTM-003 dehalogenase, sequence (P59336 whole entry): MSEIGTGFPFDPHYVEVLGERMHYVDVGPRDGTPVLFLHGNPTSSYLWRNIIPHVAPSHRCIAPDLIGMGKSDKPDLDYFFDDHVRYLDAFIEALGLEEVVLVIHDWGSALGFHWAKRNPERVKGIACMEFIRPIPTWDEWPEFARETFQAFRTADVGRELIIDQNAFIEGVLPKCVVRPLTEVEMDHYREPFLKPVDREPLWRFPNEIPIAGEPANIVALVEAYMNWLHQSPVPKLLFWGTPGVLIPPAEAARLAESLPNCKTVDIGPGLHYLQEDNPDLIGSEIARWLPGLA
Protocol: as §1
Frozen pellets from 2 liters of culture were thawed into 150 mL of 10 mM Tris sulfate buffer, pH=7.5 containing 1 mM disodium EDTA. This buffer was used throughout the entire purification. The suspension was sonicated for approximately 1 hour with ice cooling using a Microson Ultrasonic Cell Disrupter and centrifuged at 10,000 rpm for 15 minutes to remove cell debris. Supernatant was removed and the sonication/centrifugation repeated with fresh buffer to increase enzyme yield. Overall sonication efficiency was monitored by absorbence at 280 nm. Cell free extracts were combined and brought slowly to 30 percent saturation with solid ammonium sulfate. The suspension was centrifuged at 10,000 rpm for 30 minutes and the pellet discarded. The supernatant was brought to 70 percent saturation with solid ammonium sulfate and centrifugation repeated. Supernatant was discarded and the pellet taken up in a small volume of buffer and dialyzed overnight against 1 liter of the same. The preparation was applied to a 1.5×15cm column of DEAE-Sephadex equilibrated with the same buffer elution carried out with a 1 liter gradient from 0 to 400 mM ammonium sulfate. Fractions of about 7-8 mLs were collected. The active fractions were pooled and brought to 90 percent saturation with ammonium sulfate. The pellet was taken up in a minimal amount of buffer, ultrafiltered to 2.5 mL using 10,000 MWCO Novacell Ultrafiltration cell, and applied to a 1.5×90 cm Sephadex G-100 column. Elution was by gravity at 90 cm and fractions of 7-8 mLs were collected. Active fractions were poled, brought to 30 percent saturation with ammonium sulfate, and applied to a 10 ml column of Butyl-agarose equilibrated in the same. Elution was performed with a 500 mL gradient from 30 percent-0 percent ammonium sulfate. Active fractions were pooled, dialyzed and used for substrate selectivity studies.
To evaluate the substrate selectivity of haloalkane dehalogenase from isolated Rhodococcus species, an enzyme preparation from the strain designated TDTM-003 was purified by the procedure described under General Experimental. This preparation provided a dehalogenase which was approximately 50 percent pure as estimated by SDS-PAGE and was free of interfering halohydrin dehalogenase activity.
The activity of this partially purified TDTM-003 dehalogenase preparation was evaluated against various chlorinated and brominated substrates. Each enzymatic rate was corrected for non-enzymatic hydroloysis.

[3] = test system: double mutants lacking both ADH and halohydrin dehalogenase activity; assay: Whole cell conversion of DCP, DCB and TCP by double mutants: kinetics, selectivity, enantioselectivity; format: cell-based, Rhodococcus species; details: double mutants grown on succinate, induced with 1-chlorobutane
Protocol: To evaluate kinetics and selectivity of various mutants with respect to conversion of the target halocarbons, 1,2-dichloropropane (DCP), 1,2-dichloro-butane (DCB) and 1,2,3-trichloropropane (TCP) cultures were first inoculated from slants into 25 mL nutrient media in a 125 mL flask and grown overnight. Five mL were inoculated into 50 mL of MM1X4P containing 5 g/L disodium succinate in a 250 mL flask. Following 4 hours of growth and again at 8 hours, 10 μl of 1-chlorobutane was added for induction of the dehalogenase. Following 24 hours growth, cells were harvested by centrifugation and resuspended into 50 mL of fresh sterile MM1X4P and transferred to a sterile 250 mL shake flask equipped with a bulb feeder as described by Gibson, et al., supra. DCP, DCB, and TCP were added to bulb feeders and reaction progress monitored by gas chromatography (GC). Throughout the protocol, volumes were modified as needed to provide higher concentrations of cells and/or to provide identical batches of induced cells for comparative studies.
(§2) For gas chromatography (GC) analysis of halogenated metabolites, cultures were centrifuged briefly to remove cells, saturated with sodium sulfate, and an equivalent volume of methylene chloride added. The suspension was vortexed vigorously, centrifuged to break the emulsion and the methylene chloride phase removed.
(§3) Analysis of all halocarbon substrates and products from culture broths was done by GC using a Hewlett Packard 5710 equipped with a 7671A Autoinjector with the following protocol:
Analysis for optical activity of microbially produced 2,3-dichloro-1-propanol was determined independently using two methods. […] Enantiomeric composition of DCP, DCB, and respective halohydrins can also be monitored using a derivatized cyclodexdrin gas chromatography column (CHIRALDEX™ type B-TA Column, Advanced Separation Technologies, Inc.). Enantiomeric excess was determined by a comparison of peak areas.
The double mutants were evaluated for conversion of DCP, DCB, and TCP following growth on succinate in the presence of 1-chlorobutane as an inducer of the dehalogenase. […]

TDTM-003-60-2-11 = assay: Dehalogenation by double mutant strain TDTM-003-60-2-11 in shake flask with bulb feeder; format: cell-based, Rhodococcus sp.; details: 28° C., 150 rpm, substrate from bulb feeder
Text: as §2, §3
Dehalogenation of 1,2-dichloropropane by the double mutant strain of Rhodococcus sp., designated TDTM-003-60-2-11 was assayed in the following manner: 5 mL of an overnight culture (16 hours) were used as inoculum for 50 mL MM1X4P containing 5 g/L disodium succinate in a 250 mL flask. At 4 and 8 hours growth, 10 μL of 1-chlorobutane was added to induce the dehalogenase enzyme. Following 24 hours of growth, cells were harvested by centrifugation, resuspended into 50 mL of fresh MM1X4P, and transferred to a sterile 250 mL shake flask equipped with a bulb feeder. To the bulb feeder was added 1,2-dichloropropane and incubation continued at 28° C. and 150 rpm. […] The production of halohydrin products was monitored by gas chromatography. 1 -Chloro-2-propanol and 2-chloro-1-propanol accumulate linearly in the culture broth to 74 parts-per-million (ppm) (w/v) and 20 ppm (w/v) respectively after 120 hours. The overall rate of halohydrin production is 0.60 mg/g dry cells/hr.
The procedure described in Example 6 was followed except 1,2-dichlorobutanereplaced 1-chlorobutane in the bulb feeder.
The procedure described in Example 6 was followed except 1,2,3-trichloropropane replaced 1-chlorobutane in the bulb feeder.

TDTM-003 = assay: Utilization of carbon containing compounds for growth in liquid culture, TDTM-003; format: cell-based, Rhodococcus species; details: strain TDTM-003, liquid culture

Compound: ClCC(Cl)CCl [1,2,3-trichloropropane]
- Relative Rate of Chloride Release, 1-chlorobutane = 100 [1]: 23
- Relative Rate of Halogen Release, 1-Chlorobutane = 100 [2]: 18.000
- in vivo rates of conversion [3]: 1.06 mg product/g dry cells/hr
- overall rate of halohydrin production (TDTM-003-60-2-11): 2.39 mg/g dry cells/hr

Compound: CCC(Cl)CCl (stereo not shown) [1,2-dichlorobutane]
- Relative Rate of Chloride Release, 1-chlorobutane = 100 [1]: 108
- Relative Rate of Halogen Release, 1-Chlorobutane = 100 [2]: 33.000
- in vivo rates of conversion [3]: 1.29 mg product/g dry cells/hr
- overall rate of halohydrin production (TDTM-003-60-2-11): 2.47 mg/g dry cells/hr

Compound: CC(Cl)CCl (stereo not shown) [1,2-dichloropropane]
- Relative Rate of Chloride Release, 1-chlorobutane = 100 [1]: 4.2
- utilization as a sole source of carbon (TDTM-003): does not utilize
- Relative Rate of Halogen Release, 1-Chlorobutane = 100 [2]: 5.800
- in vivo rates of conversion [3]: 0.30 mg product/g dry cells/hr
- overall rate of halohydrin production (TDTM-003-60-2-11): 0.60 mg/g dry cells/hr
